Data from PMC11945542 (Viruses, 2025).
“Also recorded” adds a separate entry of the source. Like-named read-outs stand apart in the source and are kept apart here.

Assays:
[1] = tested on: dengue virus (DNV) serotype 2 D2Y98P; test: microbe, parasite or virus in culture; format: cell-based, dengue virus serotype 2; conditions: read-out: IC50 against dengue virus type 2
[2] = tested on: influenza virus (INFV) H1N1 A/California/07/09; format: cell-based; conditions: read-out: IC50 against influenza virus; Vero cells, MOI 0.01, 35 °C, TPCK trypsin
SARS-CoV-2 [3] = test: microbe, parasite or virus in culture; format: cell-based; conditions: Calu-3 cells, 48 h, immunofluorescence of infected cells
SARS-CoV-2 [4] = test: microbe, parasite or virus in culture; format: cell-based; conditions: for IC50: read-out: IC50 against SARS-CoV-2
TIE-2 [5] = target: T1, TIE-2 (Homo sapiens, UniProt Q02763); test: Vanadate-induced TIE-2 receptor phosphorylation in CHO cells; format: cell-based; parameters: host or cells: Chinese hamster ovary (CHO) cells; conditions: Chinese hamster ovary (CHO) cells, read-out: IC50, vanadate-induced inhibition of TIE-2 receptor phosphorylation
T1 sequence (Q02763 23-1124): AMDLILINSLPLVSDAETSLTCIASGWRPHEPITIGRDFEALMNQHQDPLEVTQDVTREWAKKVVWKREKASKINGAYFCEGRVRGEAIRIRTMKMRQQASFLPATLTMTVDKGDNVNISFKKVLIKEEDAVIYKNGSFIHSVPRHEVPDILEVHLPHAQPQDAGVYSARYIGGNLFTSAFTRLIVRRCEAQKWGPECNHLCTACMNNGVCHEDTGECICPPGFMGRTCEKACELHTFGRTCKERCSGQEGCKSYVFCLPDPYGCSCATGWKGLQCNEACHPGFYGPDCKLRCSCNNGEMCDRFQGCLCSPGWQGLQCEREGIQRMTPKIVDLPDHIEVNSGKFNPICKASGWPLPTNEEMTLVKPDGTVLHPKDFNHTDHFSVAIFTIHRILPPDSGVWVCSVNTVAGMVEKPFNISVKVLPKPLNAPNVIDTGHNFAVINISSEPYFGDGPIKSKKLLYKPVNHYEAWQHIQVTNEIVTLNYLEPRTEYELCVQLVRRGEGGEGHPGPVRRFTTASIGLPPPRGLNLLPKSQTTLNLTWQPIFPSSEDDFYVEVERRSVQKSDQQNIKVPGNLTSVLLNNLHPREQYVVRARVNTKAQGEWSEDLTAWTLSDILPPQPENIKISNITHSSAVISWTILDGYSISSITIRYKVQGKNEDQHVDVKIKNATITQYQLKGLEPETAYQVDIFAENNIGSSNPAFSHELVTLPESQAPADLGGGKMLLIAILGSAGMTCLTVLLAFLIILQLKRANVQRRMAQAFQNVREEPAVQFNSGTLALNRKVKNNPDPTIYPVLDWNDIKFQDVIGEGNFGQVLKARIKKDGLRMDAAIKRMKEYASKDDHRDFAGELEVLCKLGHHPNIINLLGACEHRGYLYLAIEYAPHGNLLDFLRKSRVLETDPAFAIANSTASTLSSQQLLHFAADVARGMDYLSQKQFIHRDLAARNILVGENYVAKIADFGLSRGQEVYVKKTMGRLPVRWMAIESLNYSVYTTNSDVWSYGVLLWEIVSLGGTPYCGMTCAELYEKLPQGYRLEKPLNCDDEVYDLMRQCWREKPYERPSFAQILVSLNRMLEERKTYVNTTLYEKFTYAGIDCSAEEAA

adenovirus 5 (HAdV5) = test: microbe, parasite or virus in culture; format: cell-based; conditions: read-out: IC50 against HAdV type 5
[6] = tested on: human cytomegalovirus (HCMV) Merlin strain; test: HCMV infectivity assay in human foreskin fibroblasts; format: cell-based; conditions: 5 days, column of table headed IC50 [µM]
[7] = tested on: Rift Valley fever virus (RVFV); format: cell-based; conditions: A549 cells, primary screening, 100 to 0.4 µM, 16 h post infection
[8] = tested on: herpes simplex virus (HSV) 1 MacIntyre; format: cell-based, herpes simplex virus 1
[9] = tested on: Zika virus (ZIKV) FSS13025; format: cell-based
[10] = tested on: Herpes simplex virus (HSV) 2 MS; format: cell-based, herpes simplex virus 2
[11] = tested on: chikungunya virus (CHKV) 181/25; format: cell-based
human adenovirus (HAdV) = test: microbe, parasite or virus in culture; format: cell-based, human adenovirus serotype 11 (RCAd11pGFP)
SARS-CoV-2 [12] = format: in vivo, mice (B6.Cg-Tg(K18-ACE2)2Prlmn/J); conditions: K18-ACE2 mice, oral b.i.d., vs placebo
SARS-CoV-2 [13] = test: Primary human mucociliary airway (ALI) SARS-CoV-2 infection model; format: cell-based; conditions: tested at 10 µM
MAPK14 = MAPK14 (Homo sapiens, UniProt Q16539); test: Kinase inhibition profile: MAPK14; format: biochemical; conditions: kinase inhibition profile (DSTT, Cerep); preliminary
MAPK14, sequence (Q16539 whole entry): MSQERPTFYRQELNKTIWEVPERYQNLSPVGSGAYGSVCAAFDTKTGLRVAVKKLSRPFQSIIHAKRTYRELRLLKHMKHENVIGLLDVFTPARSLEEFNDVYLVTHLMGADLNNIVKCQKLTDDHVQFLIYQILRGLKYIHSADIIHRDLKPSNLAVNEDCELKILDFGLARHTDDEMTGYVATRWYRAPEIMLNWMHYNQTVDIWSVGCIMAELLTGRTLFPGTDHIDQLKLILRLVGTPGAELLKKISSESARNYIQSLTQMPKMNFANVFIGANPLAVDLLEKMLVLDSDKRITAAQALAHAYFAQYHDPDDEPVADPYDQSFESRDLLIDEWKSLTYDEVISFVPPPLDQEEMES

CDK8 = CDK8 (Homo sapiens, UniProt P49336); test: Kinase inhibition profile: CDK8; format: biochemical; conditions: kinase inhibition profile (DSTT, Cerep); preliminary
CDK8, sequence (P49336 whole entry): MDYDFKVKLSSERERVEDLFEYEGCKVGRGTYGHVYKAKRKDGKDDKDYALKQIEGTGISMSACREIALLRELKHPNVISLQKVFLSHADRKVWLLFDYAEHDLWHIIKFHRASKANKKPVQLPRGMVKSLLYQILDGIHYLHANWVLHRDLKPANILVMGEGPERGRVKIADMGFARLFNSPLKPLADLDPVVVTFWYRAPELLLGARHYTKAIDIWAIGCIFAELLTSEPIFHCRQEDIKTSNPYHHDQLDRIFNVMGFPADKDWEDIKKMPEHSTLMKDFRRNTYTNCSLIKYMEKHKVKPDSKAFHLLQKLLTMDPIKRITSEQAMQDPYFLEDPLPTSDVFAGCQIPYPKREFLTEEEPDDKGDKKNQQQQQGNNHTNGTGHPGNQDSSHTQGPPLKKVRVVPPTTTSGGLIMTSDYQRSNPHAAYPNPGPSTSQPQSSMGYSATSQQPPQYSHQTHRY
CDK8, sequence (P24863 whole entry partner): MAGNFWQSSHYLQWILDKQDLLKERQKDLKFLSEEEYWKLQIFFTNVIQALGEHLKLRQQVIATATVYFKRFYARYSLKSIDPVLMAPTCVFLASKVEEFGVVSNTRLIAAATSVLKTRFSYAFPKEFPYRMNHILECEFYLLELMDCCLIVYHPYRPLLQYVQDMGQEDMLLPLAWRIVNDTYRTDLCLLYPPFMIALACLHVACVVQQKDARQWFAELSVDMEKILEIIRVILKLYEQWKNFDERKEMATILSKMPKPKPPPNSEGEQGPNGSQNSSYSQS

TIE-2 [14] = target: T1, TIE-2; test: Kinase inhibition profile: TIE-2; format: biochemical; conditions: kinase inhibition profile (DSTT, Cerep); preliminary
KDR = KDR (Homo sapiens, UniProt P35968); test: Kinase inhibition profile: KDR
KDR, sequence (P35968 20-1356): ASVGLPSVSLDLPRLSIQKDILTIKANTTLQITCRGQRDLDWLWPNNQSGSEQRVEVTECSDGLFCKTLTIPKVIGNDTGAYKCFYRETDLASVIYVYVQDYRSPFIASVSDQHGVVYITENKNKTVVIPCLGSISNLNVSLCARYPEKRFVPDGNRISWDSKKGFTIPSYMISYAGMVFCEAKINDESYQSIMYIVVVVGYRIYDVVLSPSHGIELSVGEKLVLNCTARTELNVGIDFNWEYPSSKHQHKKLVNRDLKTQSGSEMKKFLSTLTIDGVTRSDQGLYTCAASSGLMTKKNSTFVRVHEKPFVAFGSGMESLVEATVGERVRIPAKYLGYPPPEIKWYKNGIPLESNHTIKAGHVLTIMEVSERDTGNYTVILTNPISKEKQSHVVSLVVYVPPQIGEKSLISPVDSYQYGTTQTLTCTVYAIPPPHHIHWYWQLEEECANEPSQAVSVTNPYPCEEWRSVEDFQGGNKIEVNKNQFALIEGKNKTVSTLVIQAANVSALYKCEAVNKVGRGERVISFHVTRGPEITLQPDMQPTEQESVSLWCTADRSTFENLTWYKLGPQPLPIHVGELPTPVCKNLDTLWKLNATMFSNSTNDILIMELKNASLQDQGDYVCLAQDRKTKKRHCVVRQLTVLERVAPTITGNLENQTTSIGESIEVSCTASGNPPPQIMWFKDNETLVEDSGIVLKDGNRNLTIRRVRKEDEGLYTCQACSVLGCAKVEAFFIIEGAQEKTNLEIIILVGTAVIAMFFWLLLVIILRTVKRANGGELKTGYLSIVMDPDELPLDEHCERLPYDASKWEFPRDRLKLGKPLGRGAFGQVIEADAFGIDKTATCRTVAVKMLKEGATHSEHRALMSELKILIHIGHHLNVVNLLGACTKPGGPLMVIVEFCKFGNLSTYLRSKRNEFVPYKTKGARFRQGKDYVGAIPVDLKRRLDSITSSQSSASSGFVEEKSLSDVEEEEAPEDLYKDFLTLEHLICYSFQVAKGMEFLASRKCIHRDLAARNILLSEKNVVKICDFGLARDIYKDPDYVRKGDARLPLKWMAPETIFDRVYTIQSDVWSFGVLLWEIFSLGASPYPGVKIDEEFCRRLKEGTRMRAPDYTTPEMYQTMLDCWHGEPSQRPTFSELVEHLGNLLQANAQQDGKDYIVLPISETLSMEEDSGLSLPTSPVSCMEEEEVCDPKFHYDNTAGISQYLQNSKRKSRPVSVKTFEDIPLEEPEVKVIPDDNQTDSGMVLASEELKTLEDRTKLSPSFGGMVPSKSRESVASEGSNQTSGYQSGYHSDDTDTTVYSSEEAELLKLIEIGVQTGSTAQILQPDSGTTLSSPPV

MAPK11 = MAPK11 (Homo sapiens, UniProt Q15759); test: Kinase inhibition profile: MAPK11; format: biochemical; conditions: kinase inhibition profile (DSTT, Cerep); preliminary
MAPK11, sequence (Q15759 whole entry): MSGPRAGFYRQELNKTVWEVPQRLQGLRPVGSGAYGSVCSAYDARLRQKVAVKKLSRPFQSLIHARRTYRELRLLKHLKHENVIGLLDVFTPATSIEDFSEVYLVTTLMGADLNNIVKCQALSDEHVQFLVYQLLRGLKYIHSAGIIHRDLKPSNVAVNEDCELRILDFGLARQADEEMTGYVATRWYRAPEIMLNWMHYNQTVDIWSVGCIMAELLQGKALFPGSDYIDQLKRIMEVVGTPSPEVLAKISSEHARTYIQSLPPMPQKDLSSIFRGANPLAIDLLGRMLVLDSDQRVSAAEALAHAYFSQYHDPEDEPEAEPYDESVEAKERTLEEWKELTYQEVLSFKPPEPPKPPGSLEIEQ

[15] = 60 mg/kg (Figure 7), 100 mg/kg (methods)

Row | Compound | IC50 ([1]; Dengue virus, Vero) [nM] | IC50 [1] [nM] | IC50 [2] [nM] | IC50 (TIE-2 [5]) [nM] | IC50 (adenovirus 5 (HAdV5); Human mastadenovirus C, Vero) [nM] | IC50 (adenovirus 5 (HAdV5)) [nM] | antiviral activity against RVFV (in words) [7] | activity against HSV-1 [8] | activity against ZIKV [9] | activity against HSV-2 [10] | antiviral activity against HAdV (in words) (human adenovirus (HAdV)) | other results
1 | CNC(=O)c1cc(Oc2ccc(NC(=O)Nc3cc(C(F)(F)F)ccc3-n3cncn3)cc2)ccn1 [Compound 1] | 8430 | 8430 | 39500 | 27 | 1160 | 1160 | antiviral activity was seen at 25 µM | Not Active | Not Active | Active |  | IC50 against SARS-CoV-2 (SARS-CoV-2 [3]): did not exhibit antiviral properties; SI (selectivity index) (SARS-CoV-2 [4]; HeLa-ACE2 cells): 5; IC50 (SARS-CoV-2 [4]; Severe acute respiratory syndrome coronavirus 2, HeLa-ACE2, 24 h): 3200 nM; activity against HCMV [6]: Active; activity against CHKV [11]: Not Active; EC50 (human adenovirus (HAdV); Human adenovirus sp., A549, 24 h, read-out: EC50 against HAdV): 4500 nM
2 | CNC(=O)c1cc(Oc2ccc(NC(=O)Nc3cc(C(F)(F)F)ccc3-n3ccnc3)cc2)ccn1 [Compound 2] |  |  |  |  |  |  | dose–response antiviral activity |  |  |  | did not have activity | IC50 (TIE-2 [5]; unit given as nm): 3 nM
3 | O=C(Nc1ccc(Oc2ccncc2)cc1)Nc1cc(C(F)(F)F)ccc1-n1cncn1 [Compound 3] |  |  |  | 36 |  |  | most potent compound |  |  |  | most potent compound | host cell toxicity by visual observation (A549 cells): displayed host cell toxicity at the highest concentrations
4 | CNC(=O)c1cc(Oc2ccc(NC(=O)Nc3cc(C)c(Cl)cc3-n3cccc3)cc2)ccn1 [Compound 4] | 10 | 12 | 10700 | 126 | 600 | 630 |  | Not Active | dose-dependent activity; also recorded: Active | dose-dependent activity; also recorded: Active |  | IC50 (SARS-CoV-2 [3]; Severe acute respiratory syndrome coronavirus 2, read-out: IC50 against SARS-CoV-2): 7700 nM; animal survival after lethal SARS-CoV-2 challenge (SARS-CoV-2 [12]; [15]): protective effect on animal survival; also recorded: increased survival; body weight loss after infection (SARS-CoV-2 [12]; [15]): reduced body weight loss; viral titers in lungs (SARS-CoV-2 [12]; days 1, 3 and 6 after infection, qRT-PCR): statistically significant reduction in viral titers; also recorded: reduced viral load in lungs; inhibition of SARS-CoV-2 replication in primary human mucociliary airway model (SARS-CoV-2 [13]): showed activity; IC50 (SARS-CoV-2 [4]; Severe acute respiratory syndrome coronavirus 2, HeLa-ACE2 cells, 24 h, immunofluorescence of infected cells): 500 nM; IC50 (MAPK14): 87 nM; IC50 (CDK8): 31 nM; inhibition of TIE-2 (in words) (TIE-2 [14]): strong inhibition; activity against CHKV ([11]; Vero cells, MOI 0.01, column of table headed IC50 [µM]): Not Active; IC50 (KDR): 7.9 nM; IC50 (MAPK11): 430 nM
